Measured values as given in US9014457B2, “Quantifying cell death” (UCL Business PLC, priority 2009, dated 2015).
“Also recorded” adds a separate entry of the source. Where a name gives a salt, the structure may show the parent alone. Read-outs that look alike come from different tables or passages of the source. Where a SMILES comes first, the peptide text is derived from it. The star is where a group is joined. Cbz = O=C(OCc1ccccc1)*

Legend:
RGCs [1] = settings: cited from earlier work
retinal neurons = settings: in vitro; cited from earlier work
[2] = tested on: astrocyte cultures (NADPH oxidase); settings: cited from earlier work
neuronal cells = settings: in vitro; cited from earlier work
[3] = tested on: neurons within the contra-lateral Lateral geniculate Body; settings: in vivo; cited from earlier work
[4] = phase III, patients with OAG; cited from earlier work
RGC [5] = settings: in vivo; cited from earlier work
[6] = in vivo; cited from earlier work
RGC [7] = settings: rat, in vivo; cited from earlier work
RGC [8] = settings: in comparison to the controls; cited from earlier work
RGCs [9] = settings: in vitro and in vivo; cited from earlier work
RGC [10] = assay: Chronic ocular hypertensive (OHT) experimental glaucoma model, in vivo imaging with annexin V and PI; design: species or system rat
Source text: For the experimental glaucoma studies, the inventors used an established model of ocular hypertension. 18 rats underwent surgery to elevate intraocular pressure (IOP) by injection of hypertonic saline solution (1.8 M) into two episcleral veins as previously described (Cordeiro et al., 2004). Contralateral, unoperated eyes acted as controls. Animals were imaged at 0, 3, 8, and 16 weeks, with at least 3 animals at each time point being killed for histology immediately after imaging. A subgroup of animals (n=4) was treated at the time of surgery with the NMDA antagonist MK801 (0.6 nmol; Tocris Cookson Ltd, Bristol UK). These animals were imaged at 3 weeks and then killed for histology.
(§1) Using a method the inventors have recently described, rats were given 2.5 μg of intravitreal Alexa Fluor 488 labelled annexin V in 5 μl PBS for identification of RGC apoptosis, 2 hours before in vivo imaging (Cordeiro et al., 2004). For mice, the inventors used 1 μl of a 0.25 mg/ml solution of IR-labelled annexin (Annexin-IR) in intravitreal injections as previously described (Schmitz-Valckenberg et al., 2008).
(§2) In order to identify necrotic RGCs in rats (2 μl) and mice (1 μl), propidium iodide (PI; 0.4 mg/ml, 1% solution, Sigma-Aldrich, Dorset UK) was administered intravitreally at the same time as annexin, 2 hours before in vivo imaging. PI intercalates into nucleic acids, binding to double-stranded DNA, but only crosses the plasma membrane of non-viable cells. Cells that have lost membrane integrity are thus identified by fluorescent red PI staining throughout the nuclei.
All rats had in vivo retinal imaging performed at regular and set intervals after experimental treatment, using a prototype Zeiss confocal scanning laser ophthalmoscope (cSLO), as previously described (Cordeiro et al., 2004; Maass et al., 2007). Imaging was performed under general anaesthesia with animals being held in a stereotaxic frame, with their pupils dilated. Different lasers and filters were used for the different fluorochromes: for excitation of Alexa Fluor 488 an Argon laser wavelength of 488 nm, and a solid state photodetector with a 521 nm cut-off filter and a 550 nm cut-on filter was employed; for DiI, a diode-pumped crystal green laser with a wavelength of 532 nm was used with 550 nm cut-off and 600 nm cut-on filters; the same laser was used for PI visualization but with a 650 nm cut-off. […] Colour and raw scatter plots of annexin and PI fluorescence intensity were constructed, so data could be analysed in a similar manner to data derived by in vitro FACS analysis. […] Fluorescence intensity counts derived from raw scatter plots were used to quantify each phase of cell death. […]

Bad = settings: in vivo; cited from earlier work
RGC [11] = assay: Abeta (Aβ25-35)-induced RGC death model, in vivo cSLO imaging with annexin V and PI; design: species or system mouse
Description: (§3) For the analysis of Abeta, freshly made Aβ25-35 (Sigma-Aldrich, 3.40 nmol) (Dahlgren et al., 2002) was intravitreally injected into C57 mice (n=10) (Maass et al., 2007). Animals were imaged at 72 hours. For AD 3× Tg-AD studies, 4 eyes (all female, 14 months) with 2 eyes from aged control mice (PS1KI; female, 18 months) were assessed. 3× Tg-AD and control PS1KI mice were obtained from a colony (maintained at CeSI) established after a generous gift of Frank Laferla. Intravitreal phorbol myristate acetate (1 μl of 10 μg/ml) was administered to left eyes of 3× Tg-AD animals, at the same time as annexin V and PI.
as §1, §2
(§4) In mice, the inventors used instrumentation as previously described (Maass et al., 2007; Schmitz-Valckenberg et al., 2008), with a modified cSLO (Heidelberg Retina Angiograph 2, Heidelberg Engineering, Dossenheim, Germany) and a wide-field lens (55°). The fluorescein angiogram (488 nm argon laser) and indocyanine green (IR 790 nm diode laser) settings were used to detect PI and IR-labelled annexin respectively. The same software was used to analyse video sequenced images as described before with whole retinal monochrome images from each eye recorded and colourised. Dual-color images were produced by combining each of the grayscale images from the cSLO into the red (PI), and green (IR annexin) of an RGB color image.
The left eye of each animal was treated with intravitreal 0.40 nmol MK801 at the same time as Abeta. Wide-angle retinal images were recorded 2 hours following intravitreal annexin (green) and PI (red), as previously described (Guo at al., 2006).
To assess the relative levels of early apoptosis, late apoptosis and necrosis the inventors studied the co-localization of PI and annexin V using ImageJ software with the Intensity Correlation Analysis plugin (Li et al., 2004). Colour and raw scatter plots of annexin and PI fluorescence intensity were constructed from plugin-generated data for each animal. Corresponding scatter plots (blue) from the eyes shown in FIG. 8a-b are illustrated in FIG. 8c-d. The data were analysed in a similar manner to data derived by in vitro FACS analysis, with four quadrants (midlines shaded in colour overlay as red, green, blue and yellow) enabling separation of the different phases of cell death as annexin V positive (early apoptosis, green), annexin V and PI double positive (late apoptosis, yellow) and PI positive (necrosis, red). Thresholds were set automatically by the plugin for each analysis of each eye. The inventors then used fluorescence intensity counts from the raw scatter plots to quantify each phase of cell death.
To further assess the analytical power of the technique, the inventors next investigated whether the level of oxidative stress in Abeta-treated eyes influenced the phase of cell death and whether this was possible to visualize in vivo. […] FIG. 8f-g are taken from the right untreated (F) and left PMA-treated (G) eye of an animal treated 72 hours previously with 3.40 nmol Aβ25-35. […]

NMDA receptors = settings: cited from earlier work
RGC [12] = settings: compared with MK-801; cited from earlier work
RGCs [13] = settings: rat; cited from earlier work
[14] = tested on: ROS production in the retina; assay: ROS production in mouse retina in vivo visualized with DHE; settings: intravitreal; vs vehicle/control eye
Description: FIG. 12B. The effects of rotenone on ROS production in mouse retina in vivo. ROS production visualized with DHE (dihydroethidium). DHE is a non-fluorescent agent, reacting with ROS intracellularly to produce a fluorescent oxidative product which can be detected. Rotenone (50 uM, 1 ul) was intravitreally injected into the one eye (C57) and the same volume of vehicle (saline) injected into the contralateral eye. DHE (1 ul) was then injected intravitreally and both eyes imaged to detect ROS production using a SLO machine.
FIG. 12C. The effects of PMA in producing ROS in mouse retina in vivo. PMA (50 ug/ml, 1 ul) was injected intravitreally into the one eye and saline (1 ul) into the contralateral eye. DHE (1 ul) was simultaneously injected for detecting ROS production.
FIG. 12D. The effects of Aβ25-35 on ROS production in vivo. DHE was intravitreally injected into the both eyes of a mouse to detect ROS production.

RGC [15] = assay: Alzheimer Triple Transgenic (3× Tg-AD) model and aged PS1KI control, retinal cell death imaging; format: in vivo, mouse
Description: as §3, §1, §2, §4
However, in these studies aged (27 month) wild type congeners were not assessed.
The inventors next investigated whether oxidative stress in AD eyes influenced the phase of cell death and whether this could be visualized in vivo. As intraneuronal Aβ accumulation and extracellular Abeta plaques are characteristics of this model (LaFerla et al., 2007), the inventors hypothesised that the addition of PMA would reveal whether the level of Abeta in this transgenic mouse is sufficient to modulate the retinal response in vivo (Abramov et al., 2005). […]

RGC [16] = settings: in vitro and in vivo; cited from earlier work
[17] = 3 weeks after elevated IOP induction
[18] = Abeta + MK801 vs Abeta alone, 72 h

Compound: COc1ccc2[nH]cc(CCNC(C)=O)c2c1 [Melatonin]
- effect on RGCs in vivo (RGCs [1]): neuroprotective effect
- protection of retinal neurons (retinal neurons): protected

Compound: superoxide dismutase
- PMA-induced lucigenin response [2]: reversed

Compound: CC12CC3CC(C)(C1)CC(N)(C3)C2 [memantine, 1-amino-3,5-dimethyl-adamantane]
- NMDA-induced neuronal death (neuronal cells): reduction
- shrinkage of neurons (LGB layers 1, 4, and 6) [3]: reduction
- primary end point [4]: ineffective
- RGC loss (RGC [5]): decreased

Compound: Nc1nc2ccc(OC(F)(F)F)cc2s1 [Riluzole]
- ERG wave recovery [6]: enhance
- pressure-induced apoptosis [6]: prevent or decrease

Compound: Geranylgeranylacetone
- RGC loss (RGC [7]): marked reduction
- expression of HSP-72 (RGC [7]): increase

Compound: C[C@]12N[C@H](Cc3ccccc31)c1ccccc12 [MK801, (+)-5-methyl-10,11-dihydro-5H-dibenzo[a,d]cyclohepten-5,10-imine maleate]
- number of apoptotic RGCs (RGC [8]): reduction
- RGC protection (RGCs [9]): protect RGCs
- late phase apoptosis (Anx+/PI+) (RGC [10]; [17]): significant reduction; also recorded: significant decrease
- levels of necrosis (PI+) (RGC [10]; [17]): significant reduction; also recorded: significant decrease
- number of dying cells (Total cell death markers) (RGC [10]; 3 weeks after elevated IOP induction, p<0.05): significant reduction
- numbers of annexin V and PI positive (apoptotic and necrotic) cells (RGC [10]; MK801 0.6 nmol at the time of surgery, 3 weeks, vs untreated OHT): significantly reduced
- Bad expression (Bad): decreasing
- number of annexin V and PI positive cells (RGC [11]; 72 hours after intravitreal 3.40 nmol Aβ25-35, MK801 0.40 nmol intravitreal at the same time as Abeta, vs Abeta-only fellow eye): reduces
- necrosis (PI+) (RGC [11]; [18]): clearly reduced; also recorded: reducing
- number of cells in late phase apoptosis (Anx+/PI+) (RGC [11]; [18]): clearly reduced; also recorded: reducing
- number of early phase apoptotic cells (Anx+) (RGC [11]; [18]): small increase
- overall levels of cell death (Total) (RGC [11]; Abeta + MK801 vs Abeta alone, 72 h, co-localization scatter plot quantification): clearly reduced
- neurotoxicity (NMDA receptors): neurotoxic effect

Compound: O=[N+]([O-])c1cc2nc(O)c(O)nc2cc1[N+](=O)[O-] [DNQX]
- RGC survival (RGC [12]): greater enhancement

Compound: glatiramer acetate [Cop-1]
- activity on RGCs in vivo (RGCs [13]): neuroprotective activity

Compound: c1ccc2c(c1)[I+]c1ccccc1-2 [DPI]
- PMA-induced lucigenin response [2]: blocked

Compound: CCCCCCCCCCCCCC(=O)O[C@@H]1[C@@H](C)[C@@]2(O)[C@@H](C=C(CO)C[C@]3(O)C(=O)C(C)=C[C@@H]23)[C@@H]2C(C)(C)[C@]12OC(C)=O [PMA, phorbol myristate acetate]
- ROS production in the retina (DHE fluorescence) [14]: significantly higher levels of ROS production
- late apoptosis (Anx+/PI+) (RGC [15]; 3× Tg-AD model, p<0.05): decreased
- increase in early phase apoptosis (Anx+) (RGC [15]; 14-month 3× Tg-AD, 2 hours after intravitreal PMA with annexin and PI): 61.4%
- increase in early phase apoptosis (Anx+) (RGC [15]; aged control (PS1KI, 18 month), 2 hours after intravitreal PMA): 30.3%
- necrosis (RGC [15]; control eyes, p<0.05): decreased
- ROS generation (lucigenin) ([2]; 1 μg/ml): increase
- overall levels of cell death (Total) (RGC [11]; Abeta + PMA vs Abeta, all treated animals, p<0.05): significantly (p<0.05) increases
- number of cells in the early phase of apoptosis (Anx+) (RGC [11]; Abeta + PMA vs Abeta, p<0.05): significantly (p<0.05) increased; also recorded: significant (p<0.05) increase
- annexin V (and PI) positive cells (RGC [11]; PMA 0.016 nmol with annexin V and PI, 72 hours after 3.40 nmol Aβ25-35, imaging 2 hours later, vs vehicle eye): increased

Compound: CC(C)C[C@@H](C=O)NC(=O)[C@H](CC(C)C)NC(=O)[C@@H](NC(=O)OCc1ccccc1)C(C)C [Z-VLL-CHO, N-benzyloxycarbonyl-Val-Leu-leucinal] (Cbz-Val-Leu-Leu-aldehyde)
- RGC apoptosis (RGC [16]): reduce
